According to US20240300937A1, “Substituted 6-(Pyrimidin-4-yl)Quinoline Compounds as Cyclin Dependent Kinase Inhibitors” (BeiGene, Ltd., priority 2022, published 2024):

Legend:
CDK4/Cyclin D1 = CDK4/Cyclin D1 (Homo sapiens (Human), UniProt P11802); assay: CDK4/Cyclin D1 kinase TR-FRET inhibition assay; type: biochemical; details: 1 mM ATP, Rb (Ser780)-biotin substrate, read-out: CDK4D1 IC50
Summary of the method: (§1)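 Kinase preincubated 60 min at room temperature with 0–10 μM compound; reaction started with 1 mM ATP and 0.15 μM Rb (Ser780)-biotin, run 120 min at room temperature in HEPES pH 7.0, 50 mM MgCl2. pRb detected by TR-FRET (665/620 nm ratio); IC50 from four-parameter logistic fit.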

CDK6/Cyclin D3 = CDK6/Cyclin D3 (Homo sapiens (Human), UniProt Q00534); assay: CDK6/Cyclin D3 kinase TR-FRET inhibition assay; type: biochemical; details: 1 mM ATP, Rb (Ser780)-biotin substrate, read-out: CDK6D3 IC50
Summary of the method: as §1

Sequence of CDK4/Cyclin D1 (P11802 whole entry): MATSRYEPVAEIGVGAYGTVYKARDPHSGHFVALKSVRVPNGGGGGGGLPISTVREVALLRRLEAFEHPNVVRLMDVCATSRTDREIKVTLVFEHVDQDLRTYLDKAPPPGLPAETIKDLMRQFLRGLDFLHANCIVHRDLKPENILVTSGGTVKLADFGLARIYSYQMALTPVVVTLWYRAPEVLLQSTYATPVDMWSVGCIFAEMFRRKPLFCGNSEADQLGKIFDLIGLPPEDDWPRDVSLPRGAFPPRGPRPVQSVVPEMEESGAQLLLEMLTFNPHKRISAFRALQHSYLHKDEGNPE
Sequence of CDK4/Cyclin D1 (P24385 whole entry partner): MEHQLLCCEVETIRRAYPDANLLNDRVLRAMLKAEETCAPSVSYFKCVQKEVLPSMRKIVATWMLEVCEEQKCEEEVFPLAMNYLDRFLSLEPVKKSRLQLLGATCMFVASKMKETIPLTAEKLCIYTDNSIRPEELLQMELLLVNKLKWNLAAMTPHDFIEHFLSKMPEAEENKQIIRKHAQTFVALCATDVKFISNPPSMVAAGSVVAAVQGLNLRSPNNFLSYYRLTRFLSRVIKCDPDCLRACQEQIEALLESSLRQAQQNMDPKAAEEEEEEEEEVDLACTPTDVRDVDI
Sequence of CDK6/Cyclin D3 (Q00534 whole entry): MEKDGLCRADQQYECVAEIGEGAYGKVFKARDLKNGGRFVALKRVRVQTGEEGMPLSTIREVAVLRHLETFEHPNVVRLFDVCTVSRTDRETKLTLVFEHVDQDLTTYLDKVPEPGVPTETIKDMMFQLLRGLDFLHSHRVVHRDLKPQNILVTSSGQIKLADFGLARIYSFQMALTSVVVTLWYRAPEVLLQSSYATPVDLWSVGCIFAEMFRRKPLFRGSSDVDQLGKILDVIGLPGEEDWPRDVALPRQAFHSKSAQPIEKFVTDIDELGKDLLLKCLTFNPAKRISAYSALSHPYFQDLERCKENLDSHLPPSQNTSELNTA
Sequence of CDK6/Cyclin D3 (P30281 whole entry partner): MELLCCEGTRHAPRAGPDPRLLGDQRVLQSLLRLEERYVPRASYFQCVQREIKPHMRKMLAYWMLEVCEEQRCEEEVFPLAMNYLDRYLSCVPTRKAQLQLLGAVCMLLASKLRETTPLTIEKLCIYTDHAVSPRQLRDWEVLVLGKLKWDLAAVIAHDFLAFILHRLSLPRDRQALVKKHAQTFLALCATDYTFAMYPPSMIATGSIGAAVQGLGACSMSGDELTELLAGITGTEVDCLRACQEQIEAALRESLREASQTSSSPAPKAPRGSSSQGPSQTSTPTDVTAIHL

Row | IC50 (CDK4/Cyclin D1) | IC50 (CDK6/Cyclin D3) | SMILES
1 | 185 nM | 1500 nM | CC(C)c1cc(C(C)(C)O)nc2ccc(-c3nc(N[C@@H]4CCOC[C@H]4O)ncc3F)cc12 [Example 206, (3S,4R)-4-((5-fluoro-4-(2-(2-hydroxypropan-2-yl)-4-isopropylquinolin-6-yl)pyrimidin-2-yl)amino)tetrahydro-2H-pyran-3-ol]
2 | 536 nM | 3020 nM | CC(C)c1nc(C(C)(C)O)nc2ccc(-c3nc(N[C@@H]4CCOC[C@H]4O)ncc3F)cc12 [Example 207, (3S,4R)-4-((5-fluoro-4-(2-(2-hydroxypropan-2-yl)-4-isopropylquinazolin-6-yl)pyrimidin-2-yl)amino)tetrahydro-2H-pyran-3-ol]
3 | 146 nM | 497 nM | CC(C)c1cc(C(C)(C)O)nc2c(F)cc(-c3nc(N[C@@H]4CCOC[C@H]4O)ncc3Cl)cc12 [Example 208, (3S,4R)-4-((5-chloro-4-(8-fluoro-2-(2-hydroxypropan-2-yl)-4-isopropylquinolin-6-yl)pyrimidin-2-yl)amino)tetrahydro-2H-pyran-3-ol]
4 | 1770 nM | 4990 nM | CC(C)c1nc(C(C)(C)O)nc2c(F)cc(-c3nc(N[C@@H]4CCOC[C@H]4O)ncc3Cl)cc12 [Example 209, (3S,4R)-4-((5-chloro-4-(8-fluoro-2-(2-hydroxypropan-2-yl)-4-isopropylquinazolin-6-yl)pyrimidin-2-yl)amino)tetrahydro-2H-pyran-3-ol]
